Data from patent US9394549B2, “Method for producing useful chemical substance from terephthalic acid potassium salt” (GENARIS, INC., priority 2012, dated 2016).

How the values were obtained:
[1] = system: gallic acid-producing Escherichia coli strain M7032 (pUXPEaLT_HFM145_tphA2A3BA1_tpaK); assay: Production of gallic acid from terephthalic acid salt in jar fermentor culture; format: cell-based; details: for Gallic acid: 0.6 M salt solution as raw material, 48 hours after the start of the main culture; for Ratio of the capacity in production (gallic acid): 48 hours, disodium terephthalate as 100%
Procedure: A gallic acid plasmid pUXPEaLT_HFM145_tphA2A3BA1_tpaK constructed in Reference Example 2 was introduced into Escherichia coli M7032 strain by a transformation method to obtain a gallic acid-producing Escherichia coli strain M7032 (pUXPEaLT_HFM145_tphA2A3BA1_tpaK). Subsequently, in the same manner as described in Example 2, the preculture of this gallic acid-producing bacterium was prepared and then merely 2% of this preculture was inoculated in a main culture medium to carry out main culture in the above condition. When the bacterial cell turbidity reached about 7 at an absorbance of 600 nm, an inducer m-toluic acid was added such that the final concentration thereof came to 1 mM to express terephthalate 1,2-dioxygenase protein, terephthalate 1,2-dioxygenase reductase protein, terephthalate dihydrodiol dehydrogenase protein, terephthalic acid transporter protein and improved para-hydroxybenzoate hydroxylase. The glucose concentration was measured with time. When the glucose concentration reached 0, the glucose and substrate mixed solution was administered.
(§1) Sampling was carried out 48 hours after the start of the main culture. Each of the samples was subjected to analysis by an LC-TOF type mass spectrometer (Waters Corporation, LCT Premier XE). Identification of gallic acid and protocatechuic acid was carried out with a combination of retention time of high performance liquid chromatography and an accurate mass value from the mass spectrometer, comparing to a standard sample of terephthalic acid and gallic acid.

[2] = system: protocatechuic acid-producing Escherichia coli strain M7032 (pUXPEaLT_tphA2A3BA1_tpaK); assay: Production of protocatechuic acid from terephthalic acid salt in jar fermentor culture; format: cell-based; details: for Ratio of the capacity in production (protocatechuic acid): disodium terephthalate as 100%
Procedure: A protocatechuic acid-producing plasmid pUXPEaLT_tphA2A3BA1_tpaK constructed in Reference Example 2 was introduced into Escherichia coli M7032 strain by a transformation method to obtain a protocatechuic acid-producing Escherichia coli strain M7032 (pUXPEaLT_tphA2A3BA1_tpaK).
Subsequently, in the same manner as described in Example 2, the preculture of the present protocatechuic acid-producing bacterium was prepared and then merely 2% of such a preculture was inoculated in a main culture medium to carry out main culture. When the bacterial cell turbidity reached about 7 at an absorbance of 600 nm, an inducer m-toluic acid was added such that the final concentration thereof came to 1 mM to express terephthalate 1,2-dioxygenase protein, terephthalate 1,2-dioxygenase reductase protein, terephthalate dihydrodiol dehydrogenase protein, and terephthalic acid transporter protein. The glucose concentration was measured with time. When the glucose concentration reached 0, the glucose and substrate mixed solution was administered.
as §1, with “of terephthalic” for “of gallic”, “and protocatechuic” for “and gallic”
(§2) Using the protocatechuic acid-producing Escherichia coli strain M7032 (pUXPEaLT_tphA2A3BA1_tpaK) created in Reference Example 2, in the same manner as described in Example 2, the preculture of the present protocatechuic acid-producing bacteria was prepared and then merely 2% of such a preculture was inoculated in a main culture medium to carry out main culture. When the bacterial cell turbidity reached about 7 at an absorbance of 600 nm, an inducer m-toluic acid was added such that the final concentration thereof came to 1 mM to express terephthalate 1,2-dioxygenase protein, terephthalate 1,2-dioxygenase reductase protein, terephthalate dihydrodiol dehydrogenase protein, and terephthalic acid transporter protein. The glucose concentration was measured with time. When the glucose concentration reached 0, the terephthalic acid salt derived from PET, which was prepared in Example 6, was dissolved such that the concentration thereof was 0.6M, mixed with glucose, and administered to a culture device.
as §1, with “out 52” for “out 48”, “of terephthalic” for “of gallic”, “and protocatechuic” for “and gallic”
as §2, with “acid-producing bacterium” for “acid-producing bacteria”, “time. […]” for “time. When the glucose concentration reached 0, the terephthalic acid salt derived from PET, which was prepared in Example 6, was dissolved such that the concentration thereof was 0.6M, mixed with glucose, and administered to a culture device.”

[3] = Solubility of terephthalic acid salts in ethylene glycol; format: physicochemical; details: for concentration of terephthalate in saturated ethylene glycol solvent: heated at 100° C. for 60 minutes, cooled to 30° C. or less, filtered; for solubility: organic solvent or mixture, same method as Example 1
Procedure: 4.15 g of terephthalic acid (0.025 mol) was placed in a 200 mL glass beaker and then 0.050 mol of potassium hydroxide (in a form of granule), 0.050 mol of sodium hydroxide (in a form of granule), or 0.025 mol of potassium hydroxide, and 0.025 mol of sodium hydroxide were placed thereto. Ethylene glycol was filled to obtain a volume of about 100 mL. The resulting mixture was covered with aluminum foil as a lid, heated at 100° C. for 60 minutes while stirred by a hot stirrer, and allowed to cool to 30° C. or less. These solutions were filtered with a filter paper (Grade 540 manufactured by Whatman) to obtain an ethylene glycol solvent saturated with the terephthalate.
The concentration of each of the terephthalates contained in such a solvent was 0.23 M in a dipotassium terephthalate saturated solution, 0.11 M in a disodium terephthalate saturated solution, and 0.20 M in a 1-potassium 4-sodium terephthalate saturated solution.

[4] = 0.6 M salt solution as raw material, 48 hours after the start of the main culture
[5] = salt obtained by depolymerization of PBT (Example 8), 0.6M, 48 hours
[6] = salt obtained by depolymerization of PET (Example 6), 0.6M, 52 hours

Row | SMILES | Gallic acid [1] [g/L] | Ratio of the capacity in production (gallic acid) [1] [%] | Protocatechuic acid [2, 4] [g/L] | Ratio of the capacity in production (protocatechuic acid) ([2]; 48 hours) [%] | solubility in ethylene glycol [3] [mM] | Ratio of the capacity in production (protocatechuic acid) ([2]; salt from PBT, 48 hours) [%] | Ratio of the capacity in production (protocatechuic acid) ([2]; salt from PET, 52 hours) [%] | Protocatechuic acid [2, 5] [g/L] | Protocatechuic acid [2, 6] [g/L] | concentration of terephthalate in saturated ethylene glycol solvent [3] [M] | solubility [3] [mM]
1 | N.O=C([O-])c1ccc(C(=O)O)cc1.[K+] [1-potassium 4-ammonium terephthalate] | 8.5 | 112 | 7.1 | 142 |  |  |  |  |  |  | 
2 | O=C([O-])c1ccc(C(=O)[O-])cc1.[K+].[Na+] [1-potassium 4-sodium terephthalate] | 8.4 | 111 | 7.7 | 154 | 205 | 108 | 108 | 11.0 | 11.1 |  | 
3 | O=C([O-])c1ccc(C(=O)[O-])cc1.[K+].[K+] [Dipotassium terephthalate, dipotassium terephthalate] | 8.6 | 113 | 8.3 | 166 |  | 114 | 113 | 11.6 | 11.5 | 0.23 | 231
4 | O=C([O-])c1ccc(C(=O)[O-])cc1.[Na+].[Na+] [Disodium terephthalate, disodium terephthalate, reference compound] | 7.6 | 100 | 5.0 | 100 |  | 100 | 100 | 10.2 | 10.2 | 0.11 | 109
